# Laboratory results: paper PMC4171606, “A novel copper(I) complex induces ER-stress-mediated apoptosis and sensitizes B-acute lymphoblastic leukemia cells to chemotherapeutic agents” (Oncotarget, 2014)
# Tests used:
# [1] = test system: HSB-2 (T-acute lymphoblastic leukemia); assay: MTT growth inhibition, 72 h; assay type: cell-based, human; settings: HSB-2, 72 h, mean ± SE
# Experimental: (§1) [Cu(thp)4][PF6] (CP) was evaluated for its growth inhibition activity on a panel of twelve different human leukemia cell lines (five B-acute lymphoblastic leukemia, three T-acute lymphoblastic leukemia, three acute myeloid leukemia and one chronic myeloid leukemia). Cells were treated for 72 h with CP and cell viability was evaluated by MTT test. […] This abnormal high expression of proteasomal proteins and mRNA seem to be correlated to the hyperproliferation of these cancer cells and to the sensitivity towards proteasome inhibitors.
# (§2) The human leukemia cell lines RS 4;11, SEM, REH, RCH-ACV, MHH-CALL2, Jurkat, CCRF-CEM, HSB2, HL-60, K562, THP-1, MV4;11 were purchased from the American Type Culture Collection. Cells were cultured in RPMI 1640 (Life Technologies, Italy) supplemented with 10% fetal bovine serum (FBS), glutamine (2 mM; Life Technologies, Italy), penicillin (100 U/ml; Life Technologies, Italy) and streptomycin (100 μg/ml; Life Technologies, Italy), and maintained at 37°C in a humidified atmosphere with 5% CO2. The cytotoxic activity of CP was determined using a standard 3-[4,5-dimethylthiazol-2-yl]-2,5-diphenyltetrazodium bromide (MTT) based colorimetric assay (Sigma-Aldrich, Italy). Briefly, cells were seeded at a density of 2×10^4 cells/well in 96-well microtiter plates. After 24 h, cells were exposed to the test compound. After different times, cell survival was determined by the addition of an MTT solution as previously described.
# [2] = test system: K562 (chronic myeloid leukemia); assay: MTT growth inhibition, 72 h; assay type: cell-based, human; settings: K562, 72 h, mean ± SE
# Experimental: as §1, §2
# [3] = test system: MHH-CALL2 (B-acute lymphoblastic leukemia); assay: MTT growth inhibition, 72 h; assay type: cell-based, human; settings: MHH-CALL2, 72 h, mean ± SE
# Experimental: as §1, §2
# [4] = test system: RCH-ACV (B-acute lymphoblastic leukemia); assay: MTT growth inhibition, 72 h; assay type: cell-based, human; settings: mean ± SE
# Experimental: as §1, §2
# [5] = test system: REH (B-acute lymphoblastic leukemia); assay: MTT growth inhibition, 72 h; assay type: cell-based, human; settings: mean ± SE
# Experimental: as §1, §2
# [6] = test system: RS4;11 (B-acute lymphoblastic leukemia); assay: MTT growth inhibition, 72 h; assay type: cell-based, human; settings: RS4;11, 72 h, mean ± SE
# Experimental: as §1, §2
# [7] = test system: SEM (B-acute lymphoblastic leukemia); assay: MTT growth inhibition, 72 h; assay type: cell-based, human; settings: mean ± SE
# Experimental: as §1, §2
# [8] = test system: 26S proteasome semipurified from RS4;11 cells, Trypsin-like (T) activity; assay: Proteasome activity on semipurified cell extract (fluorogenic substrate); assay type: biochemical, human; settings: RS4;11 extract, 60 min at 37 °C, cell-free
# Text: (§3) The 26S proteasome is a multicatalytic protease responsible for the regulated intracellular protein degradation. Its function is mediated by three main catalytic activities i) chymotrypsin like (CT) ii) Trypsin-like (T) and iii) peptidyl glutamyl peptide hydrolyzing (PGPH). To evaluate the effect of CP on the proteasome activity in leukemia cells, we tested increasing concentrations of the compound on semipurified 26S proteasome extract from RS4;11 and SEM cells, and measured the functioning of each individual proteolytic activity under cell-free condition.
# (§4) FIGURE 3 CP treatment affects Ubiquitin Proteasome System (UPS) 26S proteasome (100 μg) semipurified from (A) SEM and (B) RS4;11 cells was incubated for 60 min at 37 °C with CP at different concentrations. Chymotrypsin (CT), trypsin (T) and peptidyl glutamyl peptide hydrolyzing (PGPH) catalytic activity were measured fluorimetrically (excitation 370, nm emission 460) by following the release of free AMC from synthetic substrates N-Suc-Leu-Leu-Val-Tyr-AMC, Boc-Gln-Ala-Arg-AMC and Z-Leu-Leu-Glu-AMC, specific for CT, T and PGPH activity, respectively. (C) Cells were incubated with CP 2.5 μM for the indicated times and then western blot analyses were performed to evaluate Ubiquitin accumulation.
# (§5) RS4;11 and SEM cells were homogenized in a lysis buffer (50 mM Tris-HCl, pH 7.5, 250 mM sucrose, 5 mM MgCl2, 1 mM DTT, 0.5 mM EDTA) and ultracentrifuged for 2 h at 300,000 g. Total protein content was estimated with BioRad protein assay (BioRad) and 100 μg of protein aliquots were incubated for 60 min at 37°C with CP at different concentrations. Afterwards, fluorogenic proteasome substrates (N-Suc-Leu-Leu-Val-Tyr-7-amido-4-methylcoumarin (AMC) for chymotripsin (CT), Boc-Gln-Ala-Arg-AMC for tripsin (T) and Z-Leu-Leu-Glu-AMC for peptidyl glutamyl peptide hydrolyzing (PGPH) were added and the substrate hydrolysis was measured after 30 min by monitoring the release of Tyr-7-amido-4-methylcoumarin (AMC) using a Varian Cary Eclipse (Varian) spectrofluorometer (excitation at 370 nm, emission at 460 nm).
# [9] = test system: 26S proteasome semipurified from RS4;11 cells, chymotrypsin like (CT) activity; assay: as above; assay type: biochemical, human; settings: RS4;11 extract, 60 min at 37 °C, cell-free
# Text: as §3, §4, §5
# [10] = test system: 26S proteasome semipurified from RS4;11 cells, peptidyl glutamyl peptide hydrolyzing (PGPH) activity; assay: as above; assay type: biochemical, human; settings: RS4;11 extract, 60 min at 37 °C, cell-free
# Text: as §3, §4, §5
# [11] = test system: 26S proteasome semipurified from SEM cells, Trypsin-like (T) activity; assay: as above; assay type: biochemical, human; settings: 60 min at 37 °C, cell-free
# Text: as §3, §4, §5
# [12] = test system: 26S proteasome semipurified from SEM cells, chymotrypsin like (CT) activity; assay: as above; assay type: biochemical, human; settings: 60 min at 37 °C, cell-free
# Text: as §3, §4, §5
# [13] = test system: 26S proteasome semipurified from SEM cells, peptidyl glutamyl peptide hydrolyzing (PGPH) activity; assay: as above; assay type: biochemical, human; settings: 60 min at 37 °C, cell-free
# Text: as §3, §4, §5
smiles,measurement,setting,value
"F[P-](F)(F)(F)(F)F.OCP(CO)CO.OCP(CO)CO.OCP(CO)CO.OCP(CO)CO.[Cu+] [CP, [Cu(thp)4][PF6]]",GI50,[1],15.1 ± 0.26 µM
same,GI50,[2],23.2 ± 1 µM
same,GI50,[3],1.9 ± 0.1 µM
same,GI50,[4],0.9 ± 0.2 µM
same,GI50,[5],4.2 ± 0.2 µM
same,GI50,[6],0.3 ± 0.01 µM
same,GI50,[7],1.6 ± 0.06 µM
same,IC50,[8],~11 µM
same,IC50,[9],~18 µM
same,IC50,[10],~10 µM
same,IC50,[11],~12 µM
same,IC50,[12],~15 µM
same,IC50,[13],~16 µM
